The values below are quoted from earlier work in patent publication US20250241354A1, “ORAL PRODUCTS” (RAI STRATEGIC HOLDINGS, INC., priority 2024, published 2025).

Molecules are shown by their SMILES.

The conditions of this series: in words.

As for `CC(/C=C/C=C(C)/C=C/C(=O)O)=C\C=C\C=C(C)\C=C\C=C(C)\C=C\C(=O)O` (stereo in doubt) [norbixin, (2E,4E,6E,8E,10E,12E,14E,16E,18E)-4,8,13,17-tetramethylicosa-2,4,6,8,10,12,14,16,18-nonaenedioic acid], the solubility entry is given as “water-soluble”.

On to `COC(=O)/C=C/C(C)=C\C=C\C(C)=C\C=C\C=C(C)\C=C\C=C(C)\C=C\C(=O)O` [bixin, (2E,4E,6E,8E,10E,12E,14E,16Z,18E)-20-methoxy-4,8,13,17-tetramethyl-20-oxoicosa-2,4,6,8,10,12,14,16,18-nonaenoic acid], for which the solubility entry is “soluble in fats and alcohols but insoluble in water”.
